The target of one test is T1, ecFolD Q98H (Escherichia coli, UniProt P24186, Q98H).
T1 construct: His-tag (TEV-cleavable, vector pHis-TEV); made in house; host or cells: E. coli BL21 (DE3)
In words: SPR binding to ecFolD Q98H. On the set-up: species or system E. coli. As for the experimental part: (§1) All surface plasmon resonance (SPR) experiments described in this study were performed on a Biacore X100 system. Different FolDs with or without His-tag were coupled on CM5 sensor chips (GE Healthcare) by the amine coupling method using a kit from GE Healthcare Life Sciences (Freiburg, Germany). A pH scouting process was performed before protein immobilization to test the most appropriate buffer and the protein concentration for protein coupling. Finally, 20 μg/mL of ecFolD in 10 mM maleate buffer (pH 6.8), 30 μg/mL of ecFolD Q98H in 10 mM maleate buffer (pH 6.3), 40 μg/mL of ecFolD K54N in 10 mM maleate buffer (pH 5.8), 20 μg/mL of spFolD in 10 mM maleate buffer (pH 6.0) and 15 μg/mL of MTHFD2 (His-tag cleaved) in 10 mM maleate buffer (pH 6.8) were used for coupling. In the protein immobilization procedure, the contact time was calculated based on the pH scouting results to achieve ~3000–5000 relative resonance units (RU). The buffer used in the SPR assays was 1× HBS-P buffer (10 mM HEPES pH 7.4, 150 mM NaCl, 0.05% Tween 20). The 1 mM stock solution of carolacton was prepared in 1× HBS-P buffer and diluted to different concentration ranges by two-fold serial dilution. In the SPR assay, the association time was 180 s and the dissociation time was 600 s. Data analysis was performed using the Biacore evaluation software. […]
A general note: In SPR one partner is held on a chip, and binding of the other changes the refractive index at the surface.

The subject of a further test is KB-V.1. In words: Cytotoxicity screening, KB-V.1 (MTT). It counts as cell-based, human. As to conditions: for EC50: MDR (Pgp-overexpressing) cell line, 5 d treatment, MTT. As for the experimental part: (§2) Half maximal effective concentrations (EC50) on human cancer cell lines were determined as described elsewhere. Human cancer cell lines were maintained as recommended by the depositor (German Collection of Microorganisms and Cell Cultures, DSMZ) and were treated for 5 d with carolacton in serial dilution. The viability of adherent cell types, HCT-116 (ACC 581), KB-3.1 (ACC-158) and KB-V.1 (ACC-149) was assessed by the addition of MTT tetrazolium salt and absorbance measurement at 570 nm. Histiocytic lymphoma U-937 cells (ACC-5) were maintained in RPMI 1640 medium and transferred into folate-free medium prior to the assay. Cell viability was determined by measuring alamar blue fluorescence emission at 590 nm. The values were referenced and EC50 values were determined by sigmoidal curve fitting. The cell lines KB-3.1 and KB-V.1 are originally derived from HeLa, whereas the latter is an MDR subclone of KB-3.1. They were used to directly compare the activity of carolacton on an mdr1 overexpressing and a sensitive cell line.

For another test, the system named is KB-3.1. In words: Cytotoxicity screening, KB-3.1 (MTT). The settings on record: for EC50: 5 d treatment, MTT. Type of test: cell-based, human. As for the experimental part: as §2
Another test addresses T2, hsMTHFD2 (Homo sapiens, UniProt P13995).
T2 construct: His-tag (vector pHis-TEV) (cleaved yes); made in house; host or cells: E. coli BL21 (DE3)
T2 sequence (P13995 36-350): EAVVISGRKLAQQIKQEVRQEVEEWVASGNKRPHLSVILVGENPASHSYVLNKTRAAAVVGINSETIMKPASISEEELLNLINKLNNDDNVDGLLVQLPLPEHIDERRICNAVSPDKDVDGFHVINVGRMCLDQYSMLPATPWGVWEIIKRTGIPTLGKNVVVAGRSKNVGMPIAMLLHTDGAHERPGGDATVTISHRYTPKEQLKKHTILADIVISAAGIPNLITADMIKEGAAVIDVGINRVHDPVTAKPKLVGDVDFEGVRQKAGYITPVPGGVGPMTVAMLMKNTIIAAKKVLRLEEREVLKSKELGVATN
Description: SPR binding to hsMTHFD2. As for the experimental part:
as §1

In general, Kd refers to a measure of binding affinity in units of concentration. The low end stands for a tighter complex, the high end for a looser complex. In general, koff refers to a measure of how fast the partners let go of each other. Broadly, the EC50 is the midpoint of the concentration-response curve. Lower therefore signals higher potency in that assay.

Take `CO[C@H](CC(=O)O)[C@@H](C)C(=O)[C@H](C)/C=C(\C)[C@H]1OC(=O)[C@H](O)[C@H](O)/C=C/[C@H](C)CCC[C@@H]1C` [carolacton]: the Kd at ecFolD Q98H is 20 µM; on hsMTHFD2 (1:1 interaction model fit of association and dissociation signals), 0.019 µM. The results for the koff on ecFolD Q98H and at hsMTHFD2 were 0.608 s⁻¹ and 0.0222 s⁻¹, respectively. Further, the EC50 in the test with KB-V.1 (Homo sapiens, KB-V1, 120 h) turned out to be 42 µM; in the test on KB-V.1, 41.8 ± 14.5 µM; in the test on KB-3.1 it was 11.3 ± 3.6 µM; in the test on KB-3.1 (Homo sapiens, KB 3-1, 120 h), 11 µM. The Maximum inhibition is >80% in the test on KB-V.1 (inhibition of cell growth, 5 d) and >80% with KB-3.1 (inhibition of cell growth, 5 d).

The record behind these values is PMC5688156, “The natural product carolacton inhibits folate-dependent C1 metabolism by targeting FolD/MTHFD” (Nature Communications, 2017).
